Measurements taken from patent publication EP4682173A1, “METHOD FOR PRODUCING RADIOLABELED ANTIBODY, RADIOLABELED ANTIBODY, AND RADIOACTIVE MEDICINE” (Kagoshima University, priority 2023, dated 2024).

System: EGFR
Experiment: Test Example 7: antigen binding activity by in vitro ARG (^89Zr-labeled Pmab)
Set-up: species or system human
Conditions: day after production

Comparative Example 3: ^89Zr-panitumumab conjugate (monovalent) by the CCAP method
binding activity for EGFR: confirmed
